Reference: ChEMBL document CHEMBL1201862, “PubChem BioAssay data set” (2004)
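Where inhibition never reached the appropriate level, the endpoint shown equals the highest concentration tested. Otherwise, values were interpolated linearly from a five-concentration, 48-hour dose response in 96-well plates. GI50 = concentration required for 50% inhibition of growth.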 The source made the active and inactive calls. Cut-off read from the data, not from the text of the source: active = GI50 up to about 1.1 µM and inactive = higher.

Key:
Test in all cases: DTP human tumour cell line panel, 48 h
Malme-3M = test system: Malme-3M
M14 = test system: M14
HCC 2998 = test system: HCC 2998
SK-MEL-2 = test system: SK-MEL-2
LOX IMVI = test system: LOX IMVI
MOLT-4 = test system: MOLT-4
SNB-75 = test system: SNB-75
SW-620 = test system: SW-620
NCI-H522 = test system: NCI-H522
SN12C = test system: SN12C
HCT-116 = test system: HCT-116
U-251 = test system: U-251
OVCAR-3 = test system: OVCAR-3
DLD-1 = test system: DLD-1
CAKI-1 = test system: CAKI-1
KM12 = test system: KM12
NCI-H23 = test system: NCI-H23
LXFL 529 = test system: LXFL 529
NCI-H460 = test system: NCI-H460
HL-60 = test system: HL-60
OVCAR-5 = test system: OVCAR-5
A549 = test system: A549
XF498 = test system: XF498
EKVX = test system: EKVX
SK-MEL-5 = test system: SK-MEL-5
UACC-257 = test system: UACC-257
DMS-273 = test system: DMS-273
CCRF-CEM = test system: CCRF-CEM
COLO 205 = test system: COLO 205
786-0 = test system: 786-0
RPMI-8226 = test system: RPMI-8226
K562 = test system: K562
HOP-92 = test system: HOP-92
SNB-19 = test system: SNB-19
HCT-15 = test system: HCT-15
ACHN = test system: ACHN
DMS-114 = test system: DMS-114
OVCAR-8 = test system: OVCAR-8
KM-20L2 = test system: KM-20L2
SF-268 = test system: SF-268
NCI-H226 = test system: NCI-H226
SNB-78 = test system: SNB-78
UACC-62 = test system: UACC-62
SK-MEL-28 = test system: SK-MEL-28
SR = test system: SR
HOP-62 = test system: HOP-62
M19-MEL = test system: M19-MEL
UO-31 = test system: UO-31
TK-10 = test system: TK-10
OVCAR-4 = test system: OVCAR-4
SF-539 = test system: SF-539
SF-295 = test system: SF-295
IGROV-1 = test system: IGROV-1
A498 = test system: A498
SK-OV-3 = test system: SK-OV-3
HT-29 = test system: HT-29
RXF 393 = test system: RXF 393
HOP-18 = test system: HOP-18
NCI/ADR-RES = test system: NCI/ADR-RES
MCF7 = test system: MCF7
PC-3 = test system: PC-3
Hs-578T = test system: Hs-578T
BT-549 = test system: BT-549

Measured: GI50

CC(C)OP(=O)(OC(C)C)/C(=N/Nc1ccc([N+](=O)[O-])cc1)NNC(=O)c1ccccc1
48.1 µM: HCT-15
inactive: Malme-3M > 100 µM | M14 33.2 µM | HCC 2998 25.8 µM | SK-MEL-2 43.2 µM | LOX IMVI 21.3 µM | MOLT-4 17.2 µM | SNB-75 73.5 µM | SW-620 32.8 µM | NCI-H522 42.4 µM | SN12C > 100 µM | HCT-116 34.2 µM | U-251 26.1 µM | OVCAR-3 34.3 µM | DLD-1 39.2 µM | CAKI-1 76.6 µM | KM12 38.3 µM | NCI-H23 24.7 µM | LXFL 529 20 µM | NCI-H460 28.8 µM | HL-60 19.7 µM | OVCAR-5 > 100 µM | A549 55.6 µM | XF498 24.8 µM | EKVX > 100 µM | SK-MEL-5 17.4 µM | UACC-257 37.3 µM | DMS-273 > 10 µM | CCRF-CEM 17.7 µM | COLO 205 36.1 µM | 786-0 > 100 µM | RPMI-8226 29.7 µM | K562 29.8 µM | HOP-92 24.9 µM | SNB-19 73.8 µM | ACHN 82.4 µM | DMS-114 21.8 µM | OVCAR-8 34.7 µM | KM-20L2 48.4 µM | SF-268 36.7 µM | NCI-H226 19 µM | SNB-78 24.4 µM | UACC-62 20.5 µM | SK-MEL-28 40.6 µM | SR 22.3 µM | HOP-62 > 100 µM | M19-MEL 20.9 µM | UO-31 41.5 µM | TK-10 > 100 µM | OVCAR-4 31.4 µM | SF-539 > 100 µM

NC(=O)c1cccc(C2OC(COP(=O)(O)O)C(O)C2O)c1 (configuration not stated)
27.4 µM: HCT-15
inactive: Malme-3M > 50 µM | M14 20 µM | HCC 2998 > 50 µM | SK-MEL-2 > 50 µM | LOX IMVI > 50 µM | SF-295 39.1 µM | MOLT-4 10.9 µM | SNB-75 14.4 µM | SW-620 42.9 µM | NCI-H522 > 50 µM | SN12C > 50 µM | HCT-116 > 50 µM | IGROV-1 > 50 µM | U-251 > 50 µM | OVCAR-3 > 50 µM | DLD-1 36.6 µM | CAKI-1 > 50 µM | KM12 > 50 µM | NCI-H23 > 50 µM | LXFL 529 > 50 µM | NCI-H460 > 50 µM | A498 > 50 µM | HL-60 20.7 µM | OVCAR-5 > 50 µM | A549 > 50 µM | XF498 14.7 µM | EKVX > 50 µM | SK-MEL-5 > 50 µM | UACC-257 > 50 µM | DMS-273 48 µM | SK-OV-3 > 50 µM | CCRF-CEM 9.93 µM | COLO 205 > 50 µM | 786-0 21.7 µM | RPMI-8226 > 50 µM | K562 26.8 µM | SNB-19 > 50 µM | ACHN > 50 µM | OVCAR-8 16 µM | KM-20L2 > 50 µM | SF-268 36.9 µM | NCI-H226 32.9 µM | SNB-78 43.7 µM | UACC-62 > 50 µM | SK-MEL-28 45.9 µM | HT-29 > 50 µM | HOP-62 > 50 µM | M19-MEL > 50 µM | RXF 393 18.6 µM | UO-31 26.1 µM | TK-10 > 50 µM | SF-539 15.8 µM

N#CNC(=N)NC(=O)/C=C/C=C/c1ccc(Cl)cc1
> 100 µM: HCT-15
inactive: Malme-3M 39.4 µM | M14 > 100 µM | HOP-18 > 100 µM | SK-MEL-2 > 100 µM | LOX IMVI > 100 µM | SF-295 > 100 µM | MOLT-4 > 100 µM | SNB-75 24.2 µM | SW-620 > 100 µM | NCI-H522 > 100 µM | SN12C > 100 µM | HCT-116 > 100 µM | IGROV-1 > 100 µM | U-251 > 100 µM | OVCAR-3 > 100 µM | DLD-1 > 100 µM | CAKI-1 > 100 µM | KM12 > 100 µM | NCI-H23 > 100 µM | LXFL 529 47.4 µM | NCI-H460 > 100 µM | A498 > 100 µM | HL-60 > 100 µM | OVCAR-5 > 100 µM | A549 > 100 µM | SK-MEL-5 33.3 µM | UACC-257 > 100 µM | DMS-273 > 100 µM | SK-OV-3 > 100 µM | CCRF-CEM > 100 µM | COLO 205 > 100 µM | 786-0 88.5 µM | RPMI-8226 > 100 µM | K562 > 100 µM | HOP-92 > 100 µM | ACHN > 100 µM | DMS-114 84.5 µM | OVCAR-8 82.2 µM | KM-20L2 > 100 µM | SF-268 52.7 µM | NCI-H226 > 100 µM | SNB-78 55.1 µM | UACC-62 > 100 µM | SK-MEL-28 > 100 µM | SR 72.9 µM | HT-29 > 100 µM | HOP-62 > 100 µM | M19-MEL > 100 µM | RXF 393 41.6 µM | UO-31 > 100 µM | TK-10 94.2 µM | OVCAR-4 57.5 µM | SF-539 21.3 µM

COc1cc(CNc2ccc(SC)cc2)cc(OC)c1OC
inactive: NCI/ADR-RES 3.78 µM | Malme-3M 11 µM | M14 4.38 µM | HOP-18 33.5 µM | SK-MEL-2 4.88 µM | LOX IMVI 9.42 µM | MCF7 5.69 µM | MOLT-4 4.85 µM | SW-620 4.02 µM | NCI-H522 4.92 µM | HCT-116 6.93 µM | OVCAR-3 7.26 µM | LXFL 529 18.4 µM | NCI-H460 7.1 µM | A498 22 µM | HL-60 4.84 µM | OVCAR-5 32.1 µM | A549 10 µM | EKVX 49.7 µM | PC-3 12.4 µM | DMS-273 3.08 µM | Hs-578T 12.4 µM | CCRF-CEM 12.2 µM | COLO 205 4.48 µM | 786-0 14.6 µM | RPMI-8226 11.9 µM | DMS-114 5.15 µM | KM-20L2 4.3 µM | SNB-78 48.3 µM | HT-29 4.39 µM | UO-31 20 µM | OVCAR-4 46.9 µM | BT-549 3.18 µM
4.08 µM: HCT-15

COC(=O)N/N=C(\C)C(CN(C)C)C(c1ccccc1)c1c(O)c2ccccc2oc1=O (configuration not stated)
> 100 µM: HCT-15
inactive: Malme-3M > 100 µM | M14 > 100 µM | HCC 2998 > 100 µM | SK-MEL-2 > 100 µM | LOX IMVI > 100 µM | SF-295 > 100 µM | MOLT-4 > 100 µM | SNB-75 > 100 µM | SW-620 > 100 µM | NCI-H522 14.2 µM | SN12C > 100 µM | HCT-116 > 100 µM | IGROV-1 > 100 µM | U-251 > 100 µM | DLD-1 > 100 µM | CAKI-1 > 100 µM | KM12 > 100 µM | NCI-H23 > 100 µM | LXFL 529 > 100 µM | A498 > 100 µM | HL-60 > 100 µM | OVCAR-5 > 100 µM | A549 > 100 µM | XF498 > 100 µM | EKVX > 100 µM | SK-MEL-5 > 100 µM | UACC-257 > 100 µM | DMS-273 > 100 µM | SK-OV-3 > 100 µM | CCRF-CEM > 100 µM | COLO 205 > 100 µM | 786-0 > 100 µM | RPMI-8226 > 100 µM | K562 > 100 µM | HOP-92 27.2 µM | SNB-19 > 100 µM | ACHN > 100 µM | DMS-114 > 100 µM | OVCAR-8 > 100 µM | KM-20L2 > 100 µM | SF-268 > 100 µM | NCI-H226 > 100 µM | SNB-78 > 100 µM | UACC-62 > 100 µM | SK-MEL-28 > 100 µM | SR > 100 µM | HT-29 > 100 µM | HOP-62 > 100 µM | M19-MEL > 100 µM | RXF 393 > 100 µM | UO-31 > 100 µM | TK-10 > 100 µM | OVCAR-4 > 100 µM | SF-539 > 100 µM
